Patent US20250041278A1, “TLR8 AGONIST FOR MODULATING IMMUNE RESPONSE” (The Children's Medical Center Corporation, priority 2021, published 2025)
Read-outs that look alike come from different tables or passages of the source.

What was measured:
[1] = target: T1, human (h)TLR8 (Homo sapiens, UniProt Q9NR97); assay: PRR ligand screening (InvivoGen) in reporter cell lines; format: cell-based; settings: HEK reporter cells; % activity vs positive control
T1 construct: host or cells: HEK-293 reporter cells
T1 sequence (Q9NR97 27-1041): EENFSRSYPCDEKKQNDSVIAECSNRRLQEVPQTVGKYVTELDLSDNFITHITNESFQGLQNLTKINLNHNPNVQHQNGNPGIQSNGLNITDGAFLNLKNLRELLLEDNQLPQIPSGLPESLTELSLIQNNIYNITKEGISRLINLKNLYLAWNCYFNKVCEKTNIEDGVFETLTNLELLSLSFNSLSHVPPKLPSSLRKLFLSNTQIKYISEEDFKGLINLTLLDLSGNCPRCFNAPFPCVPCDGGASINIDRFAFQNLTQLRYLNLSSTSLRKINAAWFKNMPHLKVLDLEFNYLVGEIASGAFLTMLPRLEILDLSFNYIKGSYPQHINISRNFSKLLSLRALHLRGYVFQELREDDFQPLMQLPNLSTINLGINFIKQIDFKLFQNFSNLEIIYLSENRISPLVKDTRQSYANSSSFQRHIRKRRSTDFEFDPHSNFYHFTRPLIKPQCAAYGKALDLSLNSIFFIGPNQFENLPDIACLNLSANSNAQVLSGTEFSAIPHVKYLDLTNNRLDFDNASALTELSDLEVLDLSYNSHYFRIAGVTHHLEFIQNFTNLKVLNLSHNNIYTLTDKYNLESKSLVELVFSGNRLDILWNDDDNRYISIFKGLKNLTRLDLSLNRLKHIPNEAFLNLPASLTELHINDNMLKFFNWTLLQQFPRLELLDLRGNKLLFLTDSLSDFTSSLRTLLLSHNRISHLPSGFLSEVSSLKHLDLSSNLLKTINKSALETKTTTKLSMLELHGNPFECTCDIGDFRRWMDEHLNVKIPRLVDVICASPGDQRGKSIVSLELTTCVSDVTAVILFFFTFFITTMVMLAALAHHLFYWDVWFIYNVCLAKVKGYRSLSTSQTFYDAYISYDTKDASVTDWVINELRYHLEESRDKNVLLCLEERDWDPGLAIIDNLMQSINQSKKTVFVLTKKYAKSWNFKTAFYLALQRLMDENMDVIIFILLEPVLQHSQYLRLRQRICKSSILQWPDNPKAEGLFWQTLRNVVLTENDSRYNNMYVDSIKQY
Experimental: (§1) FIGS. 3A-3E. PVP-179 is a TLR8 agonist. FIG. 3A: PVP-179 was sent to InvivoGen for PRR ligand screening service. Various cells lines were utilized to screen for PVP-179-induced ([…]) activation of TLRs, NOD1/2, RIG-I/MDA-5, Dectin-1 or Mincle receptor. The heat-map depicts percentage activity compared to the positive control for each receptor. FIG. 3B: PVP-179 induced activity (% activity compared to the positive control: CL075 at 1 μg/mL) in HEK-293 cells specifically expressing hTLR8. In brief, these cells have an NF-κB/AP-1-inducible secreted embryonic alkaline phosphatase (SEAP) reporter gene which allows monitoring of signaling via TLR8. After incubation for 16-24 hours, supernatant harvested from the cells is mixed with media containing SEAP-substrate and the optical density (OD) is measured at 650 nm using a spectrophotometer. FIG. 3C: As in FIG. 3B, HEK cells specifically expressing hTLR2, hTLR7, or hTLR8, in addition to the HEK-Null cell line carrying only the reporter gene, were stimulated with the indicated concentrations of PVP-179. […] PVP-179 activity is expressed as a percentage of NF-κB induced in the cells stimulated with TNF (positive control for each cell line). […] The supernatants were harvested after 20-24 hours and SEAP production (to assess NF-κB activity) was measured using QUANTIBlue assay. […]

[2] = target: T2, hTLR7 (Homo sapiens, UniProt Q9NYK1); assay: HEK hTLR7 NF-κB SEAP reporter assay; format: cell-based; settings: even at higher concentrations
T2 construct: expressed in transfected cells; host or cells: HEK reporter cells
T2 sequence (Q9NYK1 27-1049): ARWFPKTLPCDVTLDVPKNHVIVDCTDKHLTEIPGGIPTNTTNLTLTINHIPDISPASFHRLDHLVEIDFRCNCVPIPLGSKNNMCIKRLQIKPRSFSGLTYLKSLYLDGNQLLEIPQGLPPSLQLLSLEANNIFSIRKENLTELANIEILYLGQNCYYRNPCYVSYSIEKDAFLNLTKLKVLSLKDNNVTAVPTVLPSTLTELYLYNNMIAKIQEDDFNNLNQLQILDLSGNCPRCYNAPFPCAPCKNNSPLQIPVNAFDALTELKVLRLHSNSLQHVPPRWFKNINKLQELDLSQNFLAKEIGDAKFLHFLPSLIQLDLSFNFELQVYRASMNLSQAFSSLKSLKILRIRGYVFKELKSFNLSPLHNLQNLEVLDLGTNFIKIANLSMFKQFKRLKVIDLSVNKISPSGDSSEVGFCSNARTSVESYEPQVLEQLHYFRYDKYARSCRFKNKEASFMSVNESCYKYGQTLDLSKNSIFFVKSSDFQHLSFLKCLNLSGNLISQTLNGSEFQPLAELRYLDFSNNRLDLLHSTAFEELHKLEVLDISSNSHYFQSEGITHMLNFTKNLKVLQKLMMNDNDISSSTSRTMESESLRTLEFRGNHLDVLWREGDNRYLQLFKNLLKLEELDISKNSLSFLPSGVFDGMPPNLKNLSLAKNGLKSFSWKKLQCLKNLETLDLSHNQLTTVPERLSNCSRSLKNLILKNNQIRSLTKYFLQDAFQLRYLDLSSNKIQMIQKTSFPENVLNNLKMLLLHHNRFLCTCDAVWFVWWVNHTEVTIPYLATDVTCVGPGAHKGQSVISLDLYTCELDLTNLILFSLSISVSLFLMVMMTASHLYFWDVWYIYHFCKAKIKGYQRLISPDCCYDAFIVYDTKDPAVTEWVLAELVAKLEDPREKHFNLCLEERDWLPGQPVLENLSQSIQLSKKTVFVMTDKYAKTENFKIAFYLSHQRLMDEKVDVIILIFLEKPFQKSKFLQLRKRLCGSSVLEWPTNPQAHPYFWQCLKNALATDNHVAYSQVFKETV
Experimental: as §1

[3] = system: Balb/c murine model of SARS-CoV-2 immunization; format: in vivo, BALB/c mice; settings: for rSpike immunogenicity: prime Day 0, boost Day 14

Q: With `CCCCn1c(/N=C/c2nc3ccccc3n2C)nc2ccccc21` [PVP-179] as the molecule, how does the “activity among all TLRs and other receptors tested” value [1] read?
A: maximal activity toward human (h)TLR8

Q: What about the “NF-κB activity in HEK cells expressing hTLR7” value [2] of the same molecule?
A: no activity was detected

Q: And the adjuvant activity ([3]; adult mice)?
A: adjuvant activity

Q: And the rSpike immunogenicity ([3]; adult mice (12 weeks))?
A: enhanced rSpike immunogenicity

Q: What about the antibody subtype enhanced ([3]; aged mice) of the same molecule?
A: primarily enhanced the production of anti-rSpike IgG1 subtype antibodies

Q: And the rSpike immunogenicity ([3]; aged mice (52 weeks/12 months old))?
A: enhanced rSpike immunogenicity

Q: What about the “antibody titers compared to rSpike alone” value ([3]; aged mice, Day 28 serum) of the same molecule?
A: 2-5 fold
